The values below come from patent publication US20210070748A1, “INHIBITORS OF BRUTONS TYROSINE KINASE” (Pharmacyclics LLC, priority 2015, published 2021).

Assay [1] addresses T1, JAK3 (Homo sapiens, UniProt P52333).
T1 sequence (P52333 1-1124): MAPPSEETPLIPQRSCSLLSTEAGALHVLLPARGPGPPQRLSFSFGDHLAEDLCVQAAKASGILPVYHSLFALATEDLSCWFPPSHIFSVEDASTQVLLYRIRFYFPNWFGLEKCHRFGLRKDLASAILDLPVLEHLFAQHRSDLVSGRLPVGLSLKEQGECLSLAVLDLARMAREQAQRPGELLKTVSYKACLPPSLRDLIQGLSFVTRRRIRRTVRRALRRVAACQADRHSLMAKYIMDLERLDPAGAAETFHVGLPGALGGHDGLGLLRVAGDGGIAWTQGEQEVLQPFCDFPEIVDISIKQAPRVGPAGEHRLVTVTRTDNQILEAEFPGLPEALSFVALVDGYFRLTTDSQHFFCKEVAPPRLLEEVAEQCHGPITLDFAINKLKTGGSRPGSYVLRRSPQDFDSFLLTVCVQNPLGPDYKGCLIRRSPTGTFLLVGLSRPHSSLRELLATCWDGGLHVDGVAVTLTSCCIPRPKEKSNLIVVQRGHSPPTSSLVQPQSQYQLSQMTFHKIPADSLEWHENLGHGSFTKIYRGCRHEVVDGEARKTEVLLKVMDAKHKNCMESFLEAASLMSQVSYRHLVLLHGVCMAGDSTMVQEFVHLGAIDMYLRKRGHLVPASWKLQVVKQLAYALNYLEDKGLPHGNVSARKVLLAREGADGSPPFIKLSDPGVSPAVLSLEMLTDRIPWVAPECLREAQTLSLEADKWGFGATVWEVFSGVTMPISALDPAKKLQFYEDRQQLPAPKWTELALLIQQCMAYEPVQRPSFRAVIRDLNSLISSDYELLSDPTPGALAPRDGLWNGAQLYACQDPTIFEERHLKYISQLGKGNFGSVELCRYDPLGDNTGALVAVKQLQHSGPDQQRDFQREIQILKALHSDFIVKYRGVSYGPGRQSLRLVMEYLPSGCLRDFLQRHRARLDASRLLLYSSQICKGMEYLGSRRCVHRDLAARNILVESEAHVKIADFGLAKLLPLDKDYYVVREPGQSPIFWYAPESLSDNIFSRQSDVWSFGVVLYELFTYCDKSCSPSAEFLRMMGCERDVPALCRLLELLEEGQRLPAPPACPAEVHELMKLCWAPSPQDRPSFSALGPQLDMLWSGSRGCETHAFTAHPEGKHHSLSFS
Put plainly: Inhibition of a panel of kinases, in vitro HotSpot kinase assay: JAK3. In kind it is biochemical. To be noted: read-out: IC50 JAK3.

The target of assay [2] is T2, ITK (Homo sapiens, UniProt Q08881).
T2 sequence (Q08881 1-620): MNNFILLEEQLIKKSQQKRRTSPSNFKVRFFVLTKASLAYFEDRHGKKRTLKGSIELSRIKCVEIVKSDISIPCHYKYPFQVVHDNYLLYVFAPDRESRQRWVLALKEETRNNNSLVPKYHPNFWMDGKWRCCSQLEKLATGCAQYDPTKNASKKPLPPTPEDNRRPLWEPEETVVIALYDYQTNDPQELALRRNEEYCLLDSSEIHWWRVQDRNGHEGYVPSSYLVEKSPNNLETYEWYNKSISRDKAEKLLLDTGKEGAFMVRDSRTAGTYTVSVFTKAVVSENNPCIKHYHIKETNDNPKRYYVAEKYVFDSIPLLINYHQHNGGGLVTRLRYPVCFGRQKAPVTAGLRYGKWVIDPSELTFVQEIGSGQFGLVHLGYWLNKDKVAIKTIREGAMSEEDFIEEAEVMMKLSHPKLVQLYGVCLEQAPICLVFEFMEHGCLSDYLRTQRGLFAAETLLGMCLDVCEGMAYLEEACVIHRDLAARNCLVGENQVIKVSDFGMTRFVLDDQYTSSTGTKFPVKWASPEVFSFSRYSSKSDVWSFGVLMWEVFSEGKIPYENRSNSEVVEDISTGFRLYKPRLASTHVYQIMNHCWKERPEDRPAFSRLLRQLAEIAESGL
Put plainly: Inhibition of a panel of kinases, in vitro HotSpot kinase assay: ITK. In kind it is biochemical. Here is the method: The degree of inhibition of a panel of kinases is determined using the in vitro HotSpot kinase assay (purified enzymes, ^33P-ATP, an appropriate substrate and 1 μM ATP).

Where [3] appears, read: D-compounds panel data, 1 μM ATP.

For orientation: IC50 means the concentration at which inhibition is half-maximal.

Where two headings read alike, the source gives them in different places.

Consider `Cn1cc(Nc2nc(N3C[C@H](CO)C[C@H](NC(=O)c4ccc(C5CC5)cc4)C3)cnc2C(N)=O)cn1` (racemic) [Example D-43, (racemic)-cis-5-[3-(4-cyclopropylbenzamido)-5-(hydroxymethyl)piperidin-1-yl]-3-[(1-methyl-1H-pyrazol-4-yl)amino]pyrazine-2-carboxamide], for which the IC50 in assay [1] (setting [3]) and in assay [2] (setting [3]) was 100 to 1000 nM in each case.
Take `CC(C)n1ccc(C(=O)N[C@@H]2CCCN(c3cnc(C(N)=O)c(Nc4cnn(C)c4)n3)[C@@H]2C)cc1=O` [Example D-35, 3-[(1-methyl-1H-pyrazol-4-yl)amino]-5-[(2R,3R)-2-methyl-3-[2-oxo-1-(propan-2-yl)-1,2-dihydropyridine-4-amido]piperidin-1-yl]pyrazine-2-carboxamide]: the IC50 in assay [1] (setting [3]) is 100 to 1000 nM; in assay [2] (setting [3]), 1000 to 10000 nM.
Regarding `CN1CCN(C(=O)c2ccc(Nc3nc(N[C@H]4CC[C@@H](NC(=O)c5ccc(C6CC6)cc5F)CC4)cnc3C(N)=O)cc2)CC1` [Example D-71, 3-{[4-(4-methylpiperazine-1-carbonyl)phenyl]amino}-5-{[(1 s,4s)-4-(4-cyclopropyl-2-fluorobenzamido)cyclohexyl]amino}pyrazine-2-carboxamide], the values for the IC50 in assay [1] (setting [3]) and in assay [2] (setting [3]) were 10 to 100 nM and 1000 to 10000 nM, respectively.
Consider `Cc1cc(Nc2nc(N3C[C@H](NC(=O)N(C)C)CC[C@H]3C)cnc2C(N)=O)sn1` [Example D-77, 5-[(2R,5R)-5-[(dimethylcarbamoyl)amino]-2-methylpiperidin-1-yl]-3-[(3-methyl-1,2-thiazol-5-yl)amino]pyrazine-2-carboxamide], for which the IC50 in assay [1] (setting [3]) was 1000 to 10000 nM; in assay [2] (setting [3]), over 10000 nM.
Take `C[C@@H]1[C@H](NC(=O)c2ccc(C3CC3)cc2)CCCN1c1cnc(C(N)=O)c(Nc2ccc(N3CCN(C)CC3)c(C(F)(F)F)c2)n1` [Example D-92, 5-[(2R,3R)-3-(4-cyclopropylbenzamido)-2-methylpiperidin-1-yl]-3-{[4-(4-methylpiperazin-1-yl)-3-(trifluoromethyl)phenyl]amino}pyrazine-2-carboxamide]: the values for the IC50 in assay [1] (setting [3]) and in assay [2] (setting [3]) were over 10000 nM and 1000 to 10000 nM, respectively.
For `C=CC(=O)N1CC[C@@H](N(C)c2cnc(C(N)=O)c(Nc3ccc(C4(C)CCN(C5CC5)CC4)cc3)n2)C1` [Example E-104, (R)-5-((1-acryloylpyrrolidin-3-yl)(methyl)amino)-3-(4-(1-cyclopropyl-4-methylpiperidin-4-yl)phenylammo)pyrazine-2-carboxamide], the IC50 is under 10 nM in assay [1] (E compounds, Table 17) and at most 10 nM in assay [2] (E compounds, Table 17).
In the case of `C[C@H]1C[C@H](NC(=O)c2ccc(C3CC3)cc2)CN(c2cnc(C(N)=O)c(Nc3cnn(C)c3)n2)C1` [Example D-34, 5-[(3S,5S)-3-(4-cyclopropylbenzamido)-5-methylpiperidin-1-yl]-3-[(1-methyl-1H-pyrazol-4-yl)amino]pyrazine-2-carboxamide], the IC50 in assay [1] (setting [3]) and in assay [2] (setting [3]) was over 10000 nM in each case.
Turning to `C[C@@H]1[C@H](NC(=O)c2ccc(C3CC3)cc2F)CCCN1c1cnc(C(N)=O)c(Nc2ccc(N3CCN(C)CC3)c(F)c2)n1` [Example D-82, 5-[(2R,3R)-3-(4-cyclopropyl-2-fluorobenzamido)-2-methylpiperidin-1-yl]-3-{[3-fluoro-4-(4-methylpiperazin-1-yl)phenyl]amino}pyrazine-2-carboxamide], the IC50 was 1000 to 10000 nM in assay [1] (setting [3]) and 100 to 1000 nM in assay [2] (setting [3]).
The like results for `C[C@@H]1[C@H](NC(=O)N(C)C)CCCN1c1cnc(C(N)=O)c(Nc2ccc(OC3CCN(C)CC3)cc2)n1` [Example D-33, 5-[(2R,3R)-3-[(dimethylcarbamoyl)amino]-2-methylpiperidin-1-yl]-3-({4-[(1-methylpiperidin-4-yl)oxy]phenyl}amino)pyrazine-2-carboxamide] were, in that order, 1000 to 10000 nM and 10 to 100 nM.
Turning to `CN(C)C(=O)N1CC[C@@H]2[C@H]1CCCN2c1cnc(C(N)=O)c(Nc2cnn(C)c2)n1` (racemic) [Example D-50, (racemic)-cis-5-[1-(dimethylcarbamoyl)-octahydro-1H-pyrrolo[3,2-b]pyridin-4-yl]-3-[(1-methyl-1H-pyrazol-4-yl)amino]pyrazine-2-carboxamide], the IC50 in assay [1] (setting [3]) and in assay [2] (setting [3]) was 1000 to 10000 nM each time.
On to `C[C@@H]1[C@H](N2Cc3cc(Br)ccc3C2=O)CCCN1c1cnc(C(N)=O)c(Nc2cnn(C)c2)n1` [Example D-27, 5-[(2R,3R)-3-(5-bromo-1-oxo-2,3-dihydro-1H-isoindol-2-yl)-2-methylpiperidin-1-yl]-3-[(1-methyl-1H-pyrazol-4-yl)amino]pyrazine-2-carboxamide], for which the IC50 in assay [1] (setting [3]) and in assay [2] (setting [3]) was 100 to 1000 nM each time.
In the case of `C[C@@H]1[C@H](NC(=O)c2cnn(C(C)(C)C)c2)CCCN1c1cnc(C(N)=O)c(Nc2cnn(C)c2)n1` [Example D-57, 5-[(2R,3R)-3-(1-tert-butyl-1H-pyrazole-4-amido)-2-methylpiperidin-1-yl]-3-[(1-methyl-1H-pyrazol-4-yl)amino]pyrazine-2-carboxamide], the IC50 in assay [1] (setting [3]) is 1000 to 10000 nM; in assay [2] (setting [3]) it was 100 to 1000 nM.
With `Cn1cc(Nc2nc(N3CCC(NC(=O)c4ccc(C5CC5)cc4)C(O)C3)cnc2C(N)=O)cn1` (single isomer, unassigned) [Example D-28, Trans-5-[4-(4-cyclopropylbenzamido)-3-hydroxypiperidin-1-yl]-3-[(1-methyl-1H-pyrazol-4-yl)amino]pyrazine-2-carboxamide], the IC50 is over 10000 nM in assay [1] (setting [3]) and 1000 to 10000 nM in assay [2] (setting [3]).
Taken in the same sequence, the figures for `C[C@@H]1[C@H](NC(=O)c2ccc(C3CC3)cc2F)CCCN1c1cnc(C(N)=O)c(Nc2nc3c(s2)CN(C)CC3)n1` [Example D-62, 5-[(2R,3R)-3-(4-cyclopropyl-2-fluorobenzamido)-2-methylpiperidin-1-yl]-3-({5-methyl-4H,5H,6H,7H-[1,3]thiazolo[5,4-c]pyridin-2-yl}amino)pyrazine-2-carboxamide] were over 10000 nM and over 10000 nM.
The like results for `C[C@@H]1[C@H](NC(=O)c2ccc(C3CC3)cc2)CCCN1c1cnc(C(N)=O)c(Nc2cnn(CC3CCOCC3)c2)n1` [Example D-319, 5-[(2R,3R)-3-(4-cyclopropylbenzamido)-2-methylpiperidin-1-yl]-3-{[1-(oxan-4-ylmethyl)-1H-pyrazol-4-yl]amino}pyrazine-2-carboxamide] were, in that order, over 10000 nM and 100 to 1000 nM.
For the compound `C[C@@H]1[C@H](NC(=O)c2ccc(C3CC3)nc2)CCCN1c1cnc(C(N)=O)c(Nc2ccc(OC3CCC(F)(F)CC3)cc2)n1` [Example D-48, 5-[(2R,3R)-3-(6-cyclopropylpyridine-3-amido)-2-methylpiperidin-1-yl]-3-({4-[(4,4-difluorocyclohexyl)oxy]phenyl}amino)pyrazine-2-carboxamide], the IC50 in assay [1] (setting [3]) is 1000 to 10000 nM; in assay [2] (setting [3]), over 10000 nM.
As for `C[C@@H]1[C@H](NC(=O)c2ccc(C3CC3)cc2)CCCN1c1cnc(C(N)=O)c(Nc2ccc(OC(F)(F)F)cc2)n1` [Example D-42, 5-[(2R,3R)-3-(4-cyclopropylbenzamido)-2-methylpiperidin-1-yl]-3-{[4-(trifluoromethoxy)phenyl]amino}pyrazine-2-carboxamide], the IC50 in assay [1] (setting [3]) and in assay [2] (setting [3]) was over 10000 nM each time.
